Results as given in patent publication US4200575A, “7[(2-Thiazolyl)-2-(oxoimino)acetamido]cephalosporin derivatives” (Takeda Chemical Industries, Ltd., priority 1977, dated 1980).

Key:
Test in all cases: Minimal inhibitory concentration (M.I.C.), agar dilution method
Conditions in all cases: TSA, inoculum 10^7 /ml
[1] = system: P. morganii IFO 3168; type: cell-based, Proteus morganii
Source text: (§1) (a) Determination of minimal inhibitory concentrations (Tables 1 to 8):
(§2) Procedure: agar dilution method

[2] = system: S. aureus 209P; type: cell-based, Staphylococcus aureus
Source text: as §1, §2

[3] = system: S. aureus 1840; type: cell-based, Staphylococcus aureus
Source text: as §1, §2

[4] = system: E. coli 0-111; type: cell-based, Escherichia coli
In short: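 MIC against E. coli O-111 was determined by agar dilution.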

[5] = system: E. coli T-7; type: cell-based, Escherichia coli
Source text: as §1, §2

[6] = system: E. coli NIHJ JC-2; type: cell-based, Escherichia coli
Source text: as §1, §2

[7] = system: K. pneumoniae DT; type: cell-based, Klebsiella pneumoniae
Source text: as §1, §2

[8] = system: K. pneumoniae GN 3835; type: cell-based, Klebsiella pneumoniae
Source text: as §1, §2

[9] = system: S. marcescens IFO 12648; type: cell-based, Serratia marcescens
Source text: as §1, §2

[10] = system: S. marcescens TN 24; type: cell-based, Serratia marcescens
Source text: as §1, §2

[11] = system: P. mirabilis GN 4359; type: cell-based, Proteus mirabilis
Source text: as §1, §2

[12] = system: E. cloacae TN 1282; type: cell-based, Enterobacter cloacae
Source text: as §1, §2

[13] = system: C. freundii GN 99; type: cell-based, Citrobacter freundii
Source text: as §1, §2

[14] = system: C. freundii GN 1706; type: cell-based, Citrobacter freundii
Source text: as §1, §2

[15] = system: P. rettgeri TN 338; type: cell-based, Proteus rettgeri
Source text: as §1, §2

[16] = system: P. rettgeri GN4733; type: cell-based, Proteus rettgeri
Source text: as §1, §2

[17] = system: P. vulgaris IFO 3988; type: cell-based, Proteus vulgaris
Source text: as §1, §2

[18] = system: P. vulgaris GN 4413; type: cell-based, Proteus vulgaris
Source text: as §1, §2

SMILES | minimal inhibitory concentration (M.I.C.) [1] | minimal inhibitory concentration (M.I.C.) [2] | minimal inhibitory concentration (M.I.C.) [3] | minimal inhibitory concentration (M.I.C.) [4] | minimal inhibitory concentration (M.I.C.) [5] | minimal inhibitory concentration (M.I.C.) [6] | minimal inhibitory concentration (M.I.C.) [7] | minimal inhibitory concentration (M.I.C.) [8] | minimal inhibitory concentration (M.I.C.) [9] | minimal inhibitory concentration (M.I.C.) [10] | minimal inhibitory concentration (M.I.C.) [11] | minimal inhibitory concentration (M.I.C.) [12] | minimal inhibitory concentration (M.I.C.) [13] | minimal inhibitory concentration (M.I.C.) [14] | minimal inhibitory concentration (M.I.C.) [15] | minimal inhibitory concentration (M.I.C.) [16] | minimal inhibitory concentration (M.I.C.) [17] | minimal inhibitory concentration (M.I.C.) [18]
CNC(=O)O/N=C(\C(=O)NC1C(=O)N2C(C(=O)O)=C(CSc3nnc(CO)n3C)CSC12)c1csc(=N)[nH]1 (stereo not drawn) [Example IV - 5] | 0.39 | 6.25 | 6.25 | ≤ 0.2 | 1.56 | ≤ 0.2 | ≤ 0.2 | 0.39 | 3.13 | 3.13 | 0.39 | 3.13 | 0.39 | 0.78 | ≤ 0.2 | 0.78 | 0.39 | 25
CNC(=O)O/N=C(\C(=O)NC1C(=O)N2C(C(=O)O)=C(C)CSC12)c1csc(=N)[nH]1 (stereo not drawn) [Example II - 6] | 12.5 | 50 | 50 | 0.78 | 6.25 | 3.13 | 0.78 | 1.56 | 50 | 100 | 0.78 | 50 | 6.25 | 12.5 | 0.024 | 0.2 | 1.56 | 12.5
CNC(=O)O/N=C(\C(=O)NC1C(=O)N2C(C(=O)[O-])=C(C[n+]3ccc(C(N)=O)cc3)CSC12)c1csc(=N)[nH]1 (stereo not drawn) [Example IV - 2, 7-[2-(2-imino-4-thiazolin-4-yl)-2-methylcarbamoyloximinoacetamido]-3-(4-carbamoylpyridiniummethyl)-3-cephem-4-carboxylate (syn-isomer)] | 0.78 | 3.13 | 3.13 | 0.2 | 6.25 | 0.78 | 0.39 | 1.56 | 3.13 | 3.13 | 1.56 | 3.13 | 0.78 | 1.56 | 0.1 | 0.78 | 0.78 | 12.5
CC(C)NC(=O)O/N=C(\C(=O)NC1C(=O)N2C(C(=O)O)=C(CSc3nnnn3C)CSC12)c1csc(=N)[nH]1 (stereo not drawn) [Example II - 18] | 0.78 | 1.56 | 3.13 | 0.024 | 3.13 | 0.2 | 0.1 | 1.56 | 3.13 | 3.13 | 0.39 | 3.13 | 0.39 | 0.78 | ≤ 0.012 | 0.2 | 0.1 | 25
CCCCNC(=O)O/N=C(\C(=O)NC1C(=O)N2C(C(=O)O)=C(C)CSC12)c1csc(=N)[nH]1 (stereo not drawn) [Example II - 23] | 100 | 12.5 | 12.5 | 6.25 | 25 | 12.5 | 3.13 | 6.25 | 100 | > 100 | 3.13 | 100 | 12.5 | 25 | 0.1 | 0.39 | 12.5 | 50
CNC(=O)O/N=C(\C(=O)NC1C(=O)N2C(C(=O)O)=C(CSc3nnnn3CCO)CSC12)c1csc(=N)[nH]1 (stereo not drawn) [Example IV - 4] | ≤ 0.2 | 3.13 | 3.13 | ≤ 0.2 | 3.13 | ≤ 0.2 | ≤ 0.2 | 0.39 | 3.13 | 3.13 | ≤ 0.2 | 3.13 | ≤ 0.2 | 0.39 | ≤ 0.2 | 0.39 | ≤ 0.2 | 12.5
CC1=C(C(=O)O)N2C(=O)C(NC(=O)/C(=N\OC(=O)NC(C)C)c3csc(=N)[nH]3)C2SC1 (stereo not drawn) [Example II - 19] | 50 | 25 | 25 | 3.13 | 25 | 6.25 | 3.13 | 6.25 | 100 | > 100 | 3.13 | 100 | 12.5 | 12.5 | 0.1 | 0.39 | 12.5 | 50
CCCNC(=O)O/N=C(\C(=O)NC1C(=O)N2C(C(=O)O)=C(COC(C)=O)CSC12)c1csc(=N)[nH]1 (stereo not drawn) [Example II - 12] | 0.78 | 1.56 | 1.56 | 0.024 | 3.13 | 0.39 | 0.1 | 0.39 | 6.25 | 12.5 | 0.1 | 6.25 | 0.39 | 0.78 | ≤ 0.012 | 0.2 | 0.39 | 12.5
